≈ marks a conversion by molar mass, not a printed value.
Experiments:
Assay in all cases: Antimicrobial activity, MIC (Test Example 1)
Assay type in all cases: cell-based
H. influenzae Rd = settings: Sensitivity Disk agar-N+5% Horse blood, inoculants 10^6 CFU/ml; for MIC: Haemophilus influenzae, read-out: minimum inhibitory concentrations (MIC)
Method: (§1) The minimum inhibitory concentrations (MIC, μg/ml) of representative compounds, among the novel carbapenem derivatives of the present invention, to various pathogenic bacteria were measured in accordance with the method described in CHEMOTHERAPY, vol. 16, No. 1, 99, 1968. The culture medium for the measurement is Sensitivity Disk agar-N+5% Horse blood, and the amount of inoculants used is 10^6 CFU/ml.

E. coli W4680 = settings: Sensitivity Disk agar-N+5% Horse blood, inoculants 10^6 CFU/ml; for MIC: Escherichia coli, read-out: minimum inhibitory concentrations (MIC)
Method: as §1

S. pneumoniae PRC53 = settings: Sensitivity Disk agar-N+5% Horse blood, inoculants 10^6 CFU/ml; for MIC: Streptococcus pneumoniae, read-out: minimum inhibitory concentrations (MIC)
Method: as §1

H. influenzae 870 = settings: Sensitivity Disk agar-N+5% Horse blood, inoculants 10^6 CFU/ml; for MIC: Haemophilus influenzae, read-out: minimum inhibitory concentrations (MIC)
Method: as §1

K. pneumoniae GN69 = settings: Sensitivity Disk agar-N+5% Horse blood, inoculants 10^6 CFU/ml; for MIC: Klebsiella pneumoniae, read-out: minimum inhibitory concentrations (MIC)
Method: as §1

S. pneumoniae 197 = settings: Streptococcus pneumoniae, Sensitivity Disk agar-N+5% Horse blood, inoculants 10^6 CFU/ml, read-out: minimum inhibitory concentrations (MIC)
Method: as §1

S. aureus 209P JC-1 = settings: Sensitivity Disk agar-N+5% Horse blood, inoculants 10^6 CFU/ml; for MIC: Staphylococcus aureus, read-out: minimum inhibitory concentrations (MIC)
Method: as §1

M. catarrhalis W-500 = settings: Moraxella catarrhalis, W500, Sensitivity Disk agar-N+5% Horse blood, inoculants 10^6 CFU/ml, read-out: minimum inhibitory concentrations (MIC)
Method: as §1

S. pneumoniae R6 = settings: Sensitivity Disk agar-N+5% Horse blood, inoculants 10^6 CFU/ml; for MIC: Streptococcus pneumoniae, read-out: minimum inhibitory concentrations (MIC)
Method: as §1

H. influenzae PRC44 = settings: Sensitivity Disk agar-N+5% Horse blood, inoculants 10^6 CFU/ml; for MIC: Haemophilus influenzae, read-out: minimum inhibitory concentrations (MIC)
Method: as §1

| SMILES | MIC (H. influenzae Rd) [µg/mL] | MIC (E. coli W4680) [µg/mL] | MIC (S. pneumoniae PRC53) [µg/mL] | MIC (H. influenzae 870) [µg/mL] | MIC (K. pneumoniae GN69) [µg/mL] | MIC (S. pneumoniae 197) [µg/mL] | MIC (S. aureus 209P JC-1) [µg/mL] | MIC (M. catarrhalis W-500) [µg/mL] | MIC (S. pneumoniae R6) [µg/mL] | MIC (H. influenzae PRC44) [µg/mL] | minimum inhibitory concentrations (MIC) (H. influenzae Rd) [µg/mL] | minimum inhibitory concentrations (MIC) (E. coli W4680) [µg/mL] | minimum inhibitory concentrations (MIC) (S. pneumoniae PRC53) [µg/mL] | minimum inhibitory concentrations (MIC) (H. influenzae 870) [µg/mL] | minimum inhibitory concentrations (MIC) (K. pneumoniae GN69) [µg/mL] | minimum inhibitory concentrations (MIC) (S. aureus 209P JC-1) [µg/mL] | minimum inhibitory concentrations (MIC) (S. pneumoniae R6) [µg/mL] | minimum inhibitory concentrations (MIC) (H. influenzae PRC44) [µg/mL] |
| --- | --- | --- | --- | --- | --- | --- | --- | --- | --- | --- | --- | --- | --- | --- | --- | --- | --- | --- |
| C[C@@H](O)[C@H]1C(=O)N2C(C(=O)[O-])=C(S/C=C\c3scnc3CO)[C@H](C)[C@H]12.[Na+] [Example 41, Sodium (1R,5S,6S)-6-((1R)-1-hydroxyethyl)-2-[[(Z)-2-(4-hydroxymethylthiazol-5-yl)ethen-1-yl]thio]-1-methyl-1-carbapen-2-em-3-carboxylate] | 0.031 | 1 | 0.063 | 0.125 | 0.5 | 0.125 | 0.031 | 0.063 | 0.008 | 0.125 |  |  |  |  |  |  |  |  |
| C[C@@H](O)[C@H]1C(=O)N2C(C(=O)[O-])=C(S/C=C\c3scnc3C(=O)N(C)C)[C@H](C)[C@H]12.[Na+] [Example 43, Sodium (1R,5S,6S)-2-[[(Z)-2-(4-N,N-dimethylcarbamoylthiazol-5-yl)ethen-1-yl]thio]-6-((1R)-1-hydroxyethyl)-1-methyl-1-carbapen-2-em-3-carboxylate] |  |  |  |  |  |  |  |  |  |  | 0.031 | 4 | 0.063 | 0.25 | 4 | 0.063 | 0.008 | 0.125 |
| C[C@@H](O)[C@H]1C(=O)N2C(C(=O)[O-])=C(S/C=C\c3nc(CO)cs3)[C@H](C)[C@H]12.[Na+] [Example 44, Sodium (1R,5S,6S)-6-((1R)-1-hydroxyethyl)-2-[[(Z)-2-(4-hydroxymethylthiazol-2-yl)ethen-1-yl]thio]-1-methyl-1-carbapen-2-em-3-carboxylate] | 0.031 | 4 | 0.063 | 0.125 | 4 | 0.25 | 0.031 | 0.063 | 0.008 | 0.063 |  |  |  |  |  |  |  |  |
| C[C@@H](O)[C@H]1C(=O)N2C(C(=O)[O-])=C(S/C=C/c3scnc3CO)[C@H](C)[C@H]12.[Na+] [Example 61, Sodium (1R,5S,6S)-6-((1R)-1-hydroxyethyl)-2-[[(E)-2-(4-hydroxymethylthiazol-5-yl)ethen-1-yl]thio]-1-methyl-1-carbapen-2-em-3-carboxylate] | 0.031 | 8 | 0.25 | 0.125 | 8 | 1 | 0.063 | 0.063 | 0.031 | 0.125 |  |  |  |  |  |  |  |  |
| C[C@@H](O)[C@H]1C(=O)N2C(C(=O)[O-])=C(S/C=C\c3ncsc3CO)[C@H](C)[C@H]12.[Na+] [Example 78, Sodium (1R,5S,6S)-6-((1R)-1-hydroxyethyl)-2-[[(Z)-2-(5-hydroxymethylthiazol-4-yl)ethen-1-yl]thio]-1-methyl-1-carbapen-2-em-3-carboxylate] | 0.031 | 8 | 0.063 | 0.125 | 8 | 0.25 | 0.031 | 0.25 | 0.008 | 0.063 |  |  |  |  |  |  |  |  |
| C[C@@H](O)[C@H]1C(=O)N2C(C(=O)O)=C(SCCN=CN)C[C@H]12 [IPM, imipenem, reference compound] | 1 (≈ 3.34 µM) | 0.125 (≈ 0.418 µM) | 0.125 (≈ 0.418 µM) | 4 (≈ 13.4 µM) | 0.125 (≈ 0.418 µM) | 1 (≈ 3.34 µM) | 0.016 (≈ 0.0534 µM) | 0.063 (≈ 0.21 µM) | 0.008 (≈ 0.0267 µM) | 16 (≈ 53.4 µM) |  |  |  |  |  |  |  |  |
